According to patent publication US5756467A, “Adipocyte differentiation inhibiting peptide and adipocyte differentiation inhibiting agent using the peptide as active component thereof” (Itoham Foods Inc., priority 1993, dated 1998):
Residues, ends and D or L forms follow the SMILES beside them.

Columns and labels:
Swiss mouse 3T3-L1 cells = assay: Adipocyte differentiation of preadipocytes in vitro, GPDH activity as marker enzyme (Tests 1 and 2); assay type: cell-based; details: for action to inhibit the GPDH activity: treatment before and after the induction of differentiation, depending on the peptide concentration
Protocol: (1) Treatment before induction of differentiation
Swiss mouse 3T3-L1 cells were inoculated at a density of about 3×10^4 cells/ml to a cell culturing dish. A Dulbecco modified Eagle culture medium (DMEM) containing bovine fetal blood serum incorporated therein at a concentration of 10% was used as the culture medium. The culture was invariably carried out in an ambience of 5% CO2 and 95% of air at 37° C.
After a monolayer of cells was formed, the cell layer surface was washed with a phosphate buffer physiological salt solution (PBS). In the presence of culture media containing the CD and the fraction A respectively at concentration of 0, 2, 4, and 8 mg/ml and at concentration of 0, 20, 40, and 80 μg/ml, the cell layer was cultured. Then, the cell layer surface was washed with PBS and the cell layer was cultured for two days in the presence of a culture medium incorporating therein the differentiation inducing substance (0.25 μM of dexamethasone, […] of a-methyl-3-isobutyl xanthine, and 10 μg/ml insulin).
Subsequently, the cell layer was deprived of the culture medium containing the differentiation-inducing substance. The cell layer surface was washed likewise with PBS and the cell layer was cultured for about one week in the presence of a culture medium incorporating insulin therein at a concentration of 10 μg/ml.
The effect of the fraction A on the adipocyte differentiation was rated by determining the glycerol-3-phosphate dehydrogenase activity (GPDH) by the well-known method as a marker enzyme.
(2) Treatment after induction of differentiation
Swiss mouse 3T3-L1 cells were cultured by the same method as in (1) mentioned above and then tested for GPDH activity, providing that the culture medium containing insulin at a concentration of 10 μg/ml was added to the GD and the fraction A after the removal of the culture medium containing the differentiation inducing substance.
[Test 2] Differentiation inhibiting effect of adipocyte differentiation inhibiting peptide (chemical synthesis product) on preadipocytes (in vitro)
The effects of the chemically synthesized H-Val-Thr-Leu-OH and the H-Val-Tyr-Pro-OH obtained by the same method as in Example 5 on Swiss mouse 3T3-L1 cells in were investigated by the same method as in Example 5. […]

[1] = tested on: adipocytes in adipose tissue; assay: Effect of synthetic peptides on increase of cell number in murine adipose tissue (Test 3); assay type: in vivo, mice; details: 50% fat meal + 20 ppm peptide
Protocol: [Test 3] Effect of adipocyte differentiation inhibiting peptide (chemical synthesis product) (in vivo)
The two adipocyte differentiation inhibiting peptides of the invention, Val-Thr-Leu and Val-Tyr-Pro, synthesized by the method shown in Example 5 were tested for effect on increase of adipocytes (in vivo). The test was performed by the same method as in Test 1 using globin proteolysate.

adipose tissue = assay: Effect of globin proteolysate on increase of adipose tissue, mice on 50% fat feed (Test 4); assay type: in vivo; details: 50% fat feed + Clenbuterol 2 ppm
From the text: Then, mice were allowed to ingest freely 50% fat feed and then tested for weight of adipose tissue and cell number.

[2] = tested on: cells in the subcutaneous adipose tissue; assay: Effect of globin proteolysate on distribution of adipose tissue cells (Test 4); assay type: in vivo, mice; details: 50% fat feed + Clenbuterol 2 ppm
From the text: The cell number in adipose tissues shown in Table 7 represent the values including adipocytes, preadipocytes, fibroblasts, blood vessel cells, etc. The cells in the subcutaneous adipose tissue were investigated in detail as sorted into matured adipocytes, immatured adipocytes, and interstitial cells (stroma).
It is clearly noted from Table 8 showing the results of the investigation that particularly the differentiation of fibro-blasts in the group of interstitial cells represented as stromas to preadipocytes was repressed.

[3] = Peptide 0.2 mg/ml, treatment after induction of differentiation (48 hours)
[4] = Peptide 0.2 mg/ml, treatment before induction of differentiation (48 hours)
[5] = Peptide 0.4 mg/ml, treatment after induction of differentiation (48 hours)
[6] = Peptide 0.4 mg/ml, treatment before induction of differentiation (48 hours)
[7] = Peptide 0.8 mg/ml, treatment after induction of differentiation (48 hours)
[8] = Peptide 0.8 mg/ml, treatment before induction of differentiation (48 hours)

Row | SMILES | GDPH activity (Swiss mouse 3T3-L1 cells; [3]) | Ratio of Inhibition (Swiss mouse 3T3-L1 cells; [3]) | GDPH activity (Swiss mouse 3T3-L1 cells; [4]) | Ratio of Inhibition (Swiss mouse 3T3-L1 cells; [4]) | GDPH activity (Swiss mouse 3T3-L1 cells; [5]) | Ratio of Inhibition (Swiss mouse 3T3-L1 cells; [5]) | GDPH activity (Swiss mouse 3T3-L1 cells; [6]) | Ratio of Inhibition (Swiss mouse 3T3-L1 cells; [6]) | GDPH activity (Swiss mouse 3T3-L1 cells; [7]) | Ratio of Inhibition (Swiss mouse 3T3-L1 cells; [7]) | GDPH activity (Swiss mouse 3T3-L1 cells; [8]) | Ratio of Inhibition (Swiss mouse 3T3-L1 cells; [8]) | action to inhibit the GPDH activity (Swiss mouse 3T3-L1 cells) | Number of adipocytes, Epididymal adipose tissue [1] | Number of adipocytes, Retroperitoneal adipose tissue [1] | Number of adipocytes, Subcutaneous adipose tissue [1] | also measured
1 | CC(C)C[C@H](NC(=O)[C@@H](NC(=O)[C@@H](N)C(C)C)[C@@H](C)O)C(=O)O [Val-Thr-Leu, H-Val-Thr-Leu-OH] (H-Val-Thr-Leu-OH) | 463.2 ± 29.7 mU/mg protein | 35.5% | 102.5 ± 19.6 mU/mg protein | 82.1% | 281.1 ± 19.6 mU/mg protein | 60.8% | 8.1 ± 1.6 mU/mg protein | 98.6% | 13.8 ± 5.4 mU/mg protein | 98.1% | 6.3 ± 1.9 mU/mg protein | 98.9% | conspicuous action to inhibit the GPDH activity | 88 DNA μg/adipose tissue | 23 DNA μg/adipose tissue | 102 DNA μg/adipose tissue | 
2 | CC(C)(C)NCC(O)c1cc(Cl)c(N)c(Cl)c1 (centres unmarked) [Clenbuterol] |  |  |  |  |  |  |  |  |  |  |  |  |  |  |  |  | Number of adipocytes, Epididymal adipose tissue (adipose tissue): 79 ± 7 DNA μg/adipose tissue; Number of adipocytes, Retroperitoneal adipose tissue (adipose tissue): 18 ± 2 DNA μg/adipose tissue; Number of adipocytes, Subcutaneous adipose tissue (adipose tissue): 96 ± 8 DNA μg/adipose tissue; weight of adipose tissue, Epididymal adipose tissue (adipose tissue): 0.97 ± .11 g; weight of adipose tissue, Retroperitoneal adipose tissue (adipose tissue): 0.28 ± .04 g; weight of adipose tissue, Subcutaneous adipose tissue (adipose tissue): 1.49 ± .22 g; Adipocyte [2]: 30; Preadipoytes [2]: 30; Stroma [2]: 36
3 | CC(C)[C@H](N)C(=O)N[C@@H](Cc1ccc(O)cc1)C(=O)N1CCC[C@H]1C(=O)O [Val-Tyr-Pro, H-Val-Tyr-Pro-OH] (H-Val-Tyr-Pro-OH) | 412.6 ± 20.3 mU/mg protein | 42.5% | 106.7 ± 28.1 mU/mg protein | 83.0% | 197.3 ± 27.5 mU/mg protein | 72.5% | 10.6 ± 2.3 mU/mg protein | 98.5% | 14.7 ± 2.7 mU/mg protein | 98.0% | 7.8 ± 1.5 mU/mg protein | 98.7% | conspicuous action to inhibit the GPDH activity | 102 DNA μg/adipose tissue | 27 DNA μg/adipose tissue | 125 DNA μg/adipose tissue | 
